Laboratory results as given in ChEMBL document CHEMBL5523759, “Discovery of Novel HDAC3 Inhibitors with PD-L1 Downregulating/Degrading and Antitumor Immune Effects” (J Med Chem, 2024).
pIC50: −log10 of the molar value. One block for each molecule: values may come before it. The source made the active and inactive calls. No cut-off for these calls is given here.

How the values were obtained:
[1] = test system: Jurkat; assay: Antiproliferative activity against human Jurkat T cells assessed as reduction in cell viability measured for 48 hrs by CCK-8 assay; type: functional, cell-based
[2] = test system: B16-F10; assay: Antitumor activity against mouse B16-F10 cells implanted in C57BL/6 mouse model assessed as tumor growth inhibition at 25 mg/kg, IG administered for 9 days; type: functional; conditions: B16-F10, po, 216 h, time 9 day, read-out: TGI
[3] = test system: B16-F10; assay: Antitumor immunity against mouse B16-F10 cells implanted in C57BL/6 mouse model assessed as increase in CD3+ CD4+ T cells at 25 mg/kg, po administered for 9 days (reference value: 1.50%); type: functional; conditions: time 9 day
[4] = test system: B16-F10; assay: Antitumor activity against mouse B16-F10 cells implanted in C57BL/6 mouse model assessed as upregulation of Ac-H3 expression at 25 mg/kg, po administered for 9 days by Western blot analysis; type: functional, organism-based; conditions: time 9.0 day
[5] = test system: B16-F10; assay: Antitumor activity against mouse B16-F10 cells implanted in C57BL/6 mouse model assessed as increase in Ac-H3 expression in tumor at 25 mg/kg, po administered for 9 days by Western blot analysis; type: functional, organism-based; conditions: time 9.0 day
[6] = test system: B16-F10; assay: Antitumor immunity against mouse B16-F10 cells implanted in C57BL/6 mouse model assessed as increase in CD3+ CD8+ T cells at 25 mg/kg, po administered for 9 days (reference value: 1.01%); type: functional; conditions: time 9 day
[7] = target: Histone deacetylase 1 (Homo sapiens, UniProt Q13547); assay: Inhibition of human recombinant HDAC1 using Ac-Leu-Gly-Lys (Ac)-AMC as substrate preincubated with compound for 10 mins followed by substrate addition and measured after 45 mins by TECAN microtiter plate reader analysis
Histone deacetylase 1, sequence (Q13547 whole entry): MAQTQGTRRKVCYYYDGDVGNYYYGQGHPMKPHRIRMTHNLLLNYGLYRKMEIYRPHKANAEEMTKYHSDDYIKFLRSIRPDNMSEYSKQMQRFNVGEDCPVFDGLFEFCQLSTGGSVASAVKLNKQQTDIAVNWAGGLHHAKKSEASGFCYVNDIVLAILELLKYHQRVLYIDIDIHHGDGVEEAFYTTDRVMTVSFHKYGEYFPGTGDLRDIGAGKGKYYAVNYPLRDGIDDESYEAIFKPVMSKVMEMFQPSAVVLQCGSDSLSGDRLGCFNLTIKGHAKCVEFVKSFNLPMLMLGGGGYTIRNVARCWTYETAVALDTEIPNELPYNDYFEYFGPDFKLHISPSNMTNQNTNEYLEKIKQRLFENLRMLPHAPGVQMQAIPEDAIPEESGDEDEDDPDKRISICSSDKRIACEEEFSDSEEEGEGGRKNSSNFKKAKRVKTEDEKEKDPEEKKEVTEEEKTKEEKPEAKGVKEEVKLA

[8] = test system: HepG2; assay: Antiproliferative activity against human HepG2 cells assessed as reduction in cell viability measured for 48 hrs by MTT assay; type: functional, cell-based; conditions: HepG2, 48 h
[9] = test system: B16-F10; assay: Antiproliferative activity against mouse B16-F10 cells assessed as reduction in cell viability measured for 48 hrs by MTT assay; type: functional, cell-based; conditions: B16-F10, 48 h
[10] = target: T1, Histone deacetylase 8 (Homo sapiens, UniProt Q9BY41); assay: Inhibition of human recombinant HDAC8 using Ac-Leu-Gly-Lys (Tfa)-AMC as substrate preincubated with compound for 10 mins followed by substrate addition and measured after 45 mins by TECAN microtiter plate reader analysis
T1 sequence (Q9BY41 whole entry): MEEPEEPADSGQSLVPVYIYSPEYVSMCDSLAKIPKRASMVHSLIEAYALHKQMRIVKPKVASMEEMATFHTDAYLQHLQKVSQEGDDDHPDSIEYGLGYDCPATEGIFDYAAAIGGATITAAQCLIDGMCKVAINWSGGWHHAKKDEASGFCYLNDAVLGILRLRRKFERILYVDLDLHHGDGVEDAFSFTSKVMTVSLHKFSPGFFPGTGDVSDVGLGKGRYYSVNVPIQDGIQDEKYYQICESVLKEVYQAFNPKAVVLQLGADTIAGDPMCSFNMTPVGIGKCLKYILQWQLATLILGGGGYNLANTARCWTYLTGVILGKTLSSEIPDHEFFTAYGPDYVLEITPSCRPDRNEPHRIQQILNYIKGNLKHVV

[11] = test system: MCF7; assay: cells; conditions: Homo sapiens, MCF7, 48 h
Description: Antiproliferative activity against human MCF7 cells assessed as reduction in cell viability measured for 48 hrs by MTT assay

[12] = test system: HCT-116; assay: cells; conditions: Homo sapiens, HCT-116, 48 h
Description: Antiproliferative activity against human HCT-116 cells assessed as reduction in cell viability measured for 48 hrs by MTT assay

[13] = target: Histone deacetylase 3 (Homo sapiens, UniProt O15379); assay: Inhibition of human recombinant HDAC3 using Ac-Leu-Gly-Lys (Ac)-AMC as substrate preincubated with compound for 10 mins followed by substrate addition and measured after 45 mins by TECAN microtiter plate reader analysis
Histone deacetylase 3, sequence (O15379 whole entry): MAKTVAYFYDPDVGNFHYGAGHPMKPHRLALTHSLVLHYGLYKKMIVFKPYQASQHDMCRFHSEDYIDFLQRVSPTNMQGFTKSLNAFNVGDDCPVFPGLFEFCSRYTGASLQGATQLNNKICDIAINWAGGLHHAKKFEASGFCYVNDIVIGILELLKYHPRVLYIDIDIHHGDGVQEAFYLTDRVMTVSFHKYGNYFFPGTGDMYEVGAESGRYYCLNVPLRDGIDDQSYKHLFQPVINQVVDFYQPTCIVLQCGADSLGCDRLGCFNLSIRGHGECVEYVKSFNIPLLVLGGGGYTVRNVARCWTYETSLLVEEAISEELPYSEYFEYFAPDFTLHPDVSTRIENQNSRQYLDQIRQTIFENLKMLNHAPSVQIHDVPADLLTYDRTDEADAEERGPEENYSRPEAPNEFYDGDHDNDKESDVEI

[14] = target: T2, Protein deacetylase HDAC6 (Homo sapiens, UniProt Q9UBN7); assay: Inhibition of human recombinant HDAC6 using Ac-Leu-Gly-Lys (Ac)-AMC as substrate preincubated with compound for 10 mins followed by substrate addition and measured after 45 mins by TECAN microtiter plate reader analysis
T2 sequence (Q9UBN7 whole entry): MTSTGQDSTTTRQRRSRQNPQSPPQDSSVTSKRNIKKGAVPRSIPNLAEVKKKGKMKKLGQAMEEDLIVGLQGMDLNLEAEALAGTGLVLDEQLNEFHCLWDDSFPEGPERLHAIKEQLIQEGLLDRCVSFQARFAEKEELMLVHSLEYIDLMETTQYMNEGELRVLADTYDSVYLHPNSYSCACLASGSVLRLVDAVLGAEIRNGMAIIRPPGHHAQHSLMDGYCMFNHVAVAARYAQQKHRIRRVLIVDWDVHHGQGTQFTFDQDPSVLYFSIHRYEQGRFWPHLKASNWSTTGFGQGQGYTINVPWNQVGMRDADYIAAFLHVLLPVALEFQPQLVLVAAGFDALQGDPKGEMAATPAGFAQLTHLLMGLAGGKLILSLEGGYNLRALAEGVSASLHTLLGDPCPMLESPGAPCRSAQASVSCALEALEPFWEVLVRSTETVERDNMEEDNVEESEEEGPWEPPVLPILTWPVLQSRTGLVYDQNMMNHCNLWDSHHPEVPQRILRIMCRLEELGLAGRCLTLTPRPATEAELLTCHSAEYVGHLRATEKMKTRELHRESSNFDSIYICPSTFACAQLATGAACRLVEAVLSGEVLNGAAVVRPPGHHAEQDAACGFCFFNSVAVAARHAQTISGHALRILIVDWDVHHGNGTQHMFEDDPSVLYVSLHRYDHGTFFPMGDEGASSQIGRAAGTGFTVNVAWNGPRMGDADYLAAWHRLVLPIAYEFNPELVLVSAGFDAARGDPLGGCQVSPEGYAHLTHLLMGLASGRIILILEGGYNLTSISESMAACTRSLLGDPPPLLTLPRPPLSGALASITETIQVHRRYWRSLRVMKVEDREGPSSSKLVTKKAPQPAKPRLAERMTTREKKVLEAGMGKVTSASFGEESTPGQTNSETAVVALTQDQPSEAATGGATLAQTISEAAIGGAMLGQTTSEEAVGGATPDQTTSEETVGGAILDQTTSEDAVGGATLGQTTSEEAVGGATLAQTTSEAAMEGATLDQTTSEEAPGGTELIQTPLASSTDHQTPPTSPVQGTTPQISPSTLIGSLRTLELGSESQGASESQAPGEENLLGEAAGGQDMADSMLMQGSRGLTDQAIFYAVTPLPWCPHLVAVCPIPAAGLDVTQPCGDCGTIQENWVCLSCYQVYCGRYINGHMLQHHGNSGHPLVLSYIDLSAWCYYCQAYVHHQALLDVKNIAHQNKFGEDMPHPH

[15] = target: T3, Histone deacetylase 7 (Homo sapiens, UniProt Q8WUI4); assay: Inhibition of human recombinant HDAC7 using Ac-Leu-Gly-Lys (Tfa)-AMC as substrate preincubated with compound for 10 mins followed by substrate addition and measured after 45 mins by TECAN microtiter plate reader analysis
T3 sequence (Q8WUI4 whole entry): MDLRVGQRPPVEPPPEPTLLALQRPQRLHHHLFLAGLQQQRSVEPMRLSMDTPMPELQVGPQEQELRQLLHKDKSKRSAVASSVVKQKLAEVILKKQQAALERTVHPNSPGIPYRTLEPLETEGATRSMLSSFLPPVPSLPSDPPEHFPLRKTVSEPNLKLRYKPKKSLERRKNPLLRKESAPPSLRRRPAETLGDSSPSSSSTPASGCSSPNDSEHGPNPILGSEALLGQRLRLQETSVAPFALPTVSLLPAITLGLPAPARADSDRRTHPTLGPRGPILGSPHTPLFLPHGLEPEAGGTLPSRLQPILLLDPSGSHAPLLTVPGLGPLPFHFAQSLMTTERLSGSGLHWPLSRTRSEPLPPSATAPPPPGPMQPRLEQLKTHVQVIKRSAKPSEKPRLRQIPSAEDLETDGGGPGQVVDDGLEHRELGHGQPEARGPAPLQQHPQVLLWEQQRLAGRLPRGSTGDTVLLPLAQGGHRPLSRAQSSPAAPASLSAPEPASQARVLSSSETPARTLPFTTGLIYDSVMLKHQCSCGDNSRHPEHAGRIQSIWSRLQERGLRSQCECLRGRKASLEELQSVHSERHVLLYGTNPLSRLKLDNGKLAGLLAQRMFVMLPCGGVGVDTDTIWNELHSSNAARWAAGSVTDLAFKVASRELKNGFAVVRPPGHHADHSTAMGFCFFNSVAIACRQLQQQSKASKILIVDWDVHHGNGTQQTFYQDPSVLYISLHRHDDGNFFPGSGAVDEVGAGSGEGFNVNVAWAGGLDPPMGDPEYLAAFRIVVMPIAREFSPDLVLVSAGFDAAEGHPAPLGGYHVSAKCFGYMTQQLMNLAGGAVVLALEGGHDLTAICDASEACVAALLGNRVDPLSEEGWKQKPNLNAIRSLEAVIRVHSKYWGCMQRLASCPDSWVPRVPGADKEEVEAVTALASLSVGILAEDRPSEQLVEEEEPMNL

SMILES: CCCNNC(=O)CCCNC(=O)c1ncc(CNc2ccccc2)s1
- pIC50 [1]: 5.31

SMILES: Cc1c(COc2cc(OCc3cccc(C#N)c3)c(CNC(C)(C)C(=O)O)cc2Cl)cccc1-c1ccccc1
- inhibition in vivo at 25 mg/kg [2]: 67%
- Activity [3]: 3.58%
- Activity [4]: inactive
- Activity [5]: inactive
- Activity [6]: 3.28%

SMILES: CCCNNC(=O)CCCCCCNC(=O)c1ncc(CNc2ccccc2)s1
- pIC50 [1]: 5.82

SMILES: Nc1ccccc1NC(=O)CNC(=O)c1ncc(CNc2ccccc2)s1
- pIC50 [1]: < 5.00

SMILES: CCCNNC(=O)CNC(=O)c1ncc(CNc2ccccc2)s1
- pIC50 [1]: < 5.00

SMILES: CCCNNC(=O)c1ncc(CNc2ccccc2)s1
- pIC50 [1]: < 5.00

SMILES: Nc1ccccc1NC(=O)CCCCCNC(=O)c1ncc(CNc2ccccc2)s1
- pIC50 [1]: 5.97

Results, then the molecule that gave them:

- pIC50 [1]: 6.40
SMILES: Nc1ccccc1NC(=O)c1ncc(CNc2ccccc2)s1

- pIC50 [1]: 6.02
SMILES: Nc1ccccc1NC(=O)CCCCNC(=O)c1ncc(CNc2ccccc2)s1

- pIC50 [1]: 5.99
SMILES: Nc1ccccc1NC(=O)CCCC(=O)Nc1ccc(-c2ncc(CNc3ccccc3)s2)cc1

- pIC50 [7]: 6.14
- pIC50 [8]: 6.13
- pIC50 [9]: 5.05
- pIC50 [1]: 7.00
- pIC50 [10]: 5.04
- pIC50 [11]: 5.35
- pIC50 [12]: < 5.00
- pIC50 [13]: 6.85
- pIC50 [14]: < 5.00
- pIC50 [15]: < 5.00
SMILES: Nc1ccccc1NC(=O)/C=C/c1ccc(CNC(=O)c2ccc(-c3ncc(CNc4ccccc4)s3)cc2)cc1

- pIC50 [1]: 6.17
SMILES: Nc1ccccc1NC(=O)CCCCC(=O)Nc1ccc(-c2ncc(CNc3ccccc3)s2)cc1

- pIC50 [1]: 6.54
SMILES: Nc1ccccc1NC(=O)CCCCCCC(=O)Nc1ccc(-c2ncc(CNc3ccccc3)s2)cc1

- pIC50 [7]: 6.51
- pIC50 [8]: 6.05
- pIC50 [9]: 5.46
- pIC50 [1]: 6.70
- pIC50 [10]: < 5.00
- pIC50 [11]: 5.31
- pIC50 [12]: 5.13
- pIC50 [13]: 6.96
- pIC50 [14]: 5.10
- pIC50 [15]: < 5.00
SMILES: Nc1ccccc1NC(=O)/C=C/c1ccc(-c2ncc(CNc3ccccc3)s2)cc1
